{"source": "patent US20180022711A1", "about": "“NOVEL CRYSTAL FORMS OF THE MONOSODIUM SALT OF FORAMSULFURON” (BAYER CROPSCIENCE AKTIENGESELLSCHAFT, priority 2014, published 2018)", "format_in_all_cases": "physicochemical", "key": {"[1]": {"experiment": "Hygroscopicity: open storage over water for one week at 25° C., water content by Karl Fischer titration", "settings": "for Water content of the sample after storage: one week at 25° C. in sealed beaker over water, Karl Fischer titration", "experimental": "100 mg each of crystal forms A, B and C were separately filled into small glass vials with snap-on caps. These three glass vials with snap-on caps were placed unsealed in a glass beaker of which the bottom was covered with a small amount of water. The glass beaker was then sealed with a reversible sealing film and stored for one week at 25° C. After this storage period, the water content of the respective sample was determined by Karl Fischer titration."}, "[2]": {"experiment": "Storage of methanol-moist crystal form A and conversion into crystal form C", "experimental": "In separate containers, 5 g each of crystal form A were each stirred with 20 g of MeOH and subsequently filtered off.\nAt 20° C., 30° C. and 35° C., the moistened products were stored for one week and a sample taken daily. These samples were dried at 65° C. and 100 mbar and the respective methanol content subsequently determined.\nAlready after 2 days (35° C.), 3 days (30° C.) and 7 days (20° C.), crystal form A had converted practically completely into crystal form C (MeOH content about 6.4% by weight)."}, "[3]": {"experiment": "Stability test of crystal form B in methanol", "settings": "suspended in methanol, stirred 7 days at 30° C., filtered and dried", "experimental": "10 g of crystal form B (MeOH content<0.01%) were suspended in 100 g of methanol and stirred for 7 days at 30° C. The product was filtered and then dried overnight at 70° C. and a pressure<100 mbar. 9.1 g of a 99.4% strength product were obtained. The methanol content in the product obtained was 0.004% by weight and the acetone content was 0.0003% by weight."}, "[4]": {"experiment": "Sorption/desorption curve, isothermal at 25° C.", "settings": "for Desorption (% by weight) / Sorption (% by weight): 25° C.", "experimental": "Sorption and desorption curves of crystal form B were measured isothermically at 25° C. The sorption curve gives the water uptake at increasing relative humidity and the desorption curve gives the drying behaviour on moisture reduction."}}, "note": "Entries after “also recorded” stand apart in the source; their conditions may differ.", "data": [{"compound": "COc1cc(OC)nc(NC(=O)NS(=O)(=O)c2cc(NC=O)ccc2C(=O)N(C)C)n1.[Na]", "note": "[Crystal form A, reference compound]", "values": [{"measurement": "Water content of the sample after storage", "setting": "[1]; listed as crystal form A", "value": 15.7, "unit": "% by weight"}, {"measurement": "Appearance of the sample after storage", "setting": "[1]; one week at 25° C. over water", "value": "very ductile and sticky"}, {"measurement": "Hygroscopicity (in words)", "setting": "[1]; one week at 25° C. over water", "value": "hygroscopic"}, {"measurement": "Time until practically complete conversion into crystal form C", "setting": "[2]; stored at 20° C.", "value": 7, "unit": "days"}, {"measurement": "Time until practically complete conversion into crystal form C", "setting": "[2]; stored at 30° C.", "value": 3, "unit": "days"}, {"measurement": "Time until practically complete conversion into crystal form C", "setting": "[2]; stored at 35° C.", "value": 2, "unit": "days"}]}, {"compound": "COc1cc(OC)nc(NC(=O)NS(=O)(=O)c2cc(NC=O)ccc2C(=O)N(C)C)n1.[Na]", "note": "[Crystal form C]", "values": [{"measurement": "Water content of the sample after storage", "setting": "[1]; listed as crystal form C", "value": 21.3, "unit": "% by weight"}]}, {"compound": "COc1cc(OC)nc(NC(=O)[N-]S(=O)(=O)c2cc(NC=O)ccc2C(=O)N(C)C)n1.[Na+]", "note": "[Crystal form B, monosodium salt of foramsulfuron]", "values": [{"measurement": "Water content of the sample after storage", "setting": "[1]", "value": 0.4, "unit": "% by weight"}, {"measurement": "Appearance of the sample after storage", "setting": "[1]; one week at 25° C. over water", "value": "still crystalline and powdery"}, {"measurement": "Methanol content in the product obtained", "setting": "[3]", "value": 0.004, "unit": "% by weight"}, {"measurement": "Hygroscopicity (in words)", "setting": "[4]; conclusion from sorption/desorption at 25° C.", "value": "not hygroscopic; also recorded: non-hygroscopic"}, {"measurement": "Desorption (% by weight)", "setting": "[4]; relative humidity 10.0%", "value": 0.846, "unit": "% by weight"}, {"measurement": "Sorption (% by weight)", "setting": "[4]; relative humidity 10.0%", "value": 0.100, "unit": "% by weight"}, {"measurement": "Desorption (% by weight)", "setting": "[4]; relative humidity 20.0%", "value": 1.227, "unit": "% by weight"}, {"measurement": "Sorption (% by weight)", "setting": "[4]; relative humidity 20.0%", "value": 0.201, "unit": "% by weight"}, {"measurement": "Desorption (% by weight)", "setting": "[4]; relative humidity 30.0%", "value": 1.495, "unit": "% by weight"}, {"measurement": "Sorption (% by weight)", "setting": "[4]; relative humidity 30.0%", "value": 0.313, "unit": "% by weight"}, {"measurement": "Desorption (% by weight)", "setting": "[4]; relative humidity 40.0%", "value": 1.760, "unit": "% by weight"}, {"measurement": "Sorption (% by weight)", "setting": "[4]; relative humidity 40.0%", "value": 0.444, "unit": "% by weight"}, {"measurement": "Desorption (% by weight)", "setting": "[4]; relative humidity 50.0%", "value": 2.086, "unit": "% by weight"}, {"measurement": "Sorption (% by weight)", "setting": "[4]; relative humidity 50.0%", "value": 0.566, "unit": "% by weight"}, {"measurement": "Desorption (% by weight)", "setting": "[4]; relative humidity 60.0%", "value": 2.269, "unit": "% by weight"}, {"measurement": "Sorption (% by weight)", "setting": "[4]; relative humidity 60.0%", "value": 0.684, "unit": "% by weight"}, {"measurement": "Desorption (% by weight)", "setting": "[4]; relative humidity 70.0%", "value": 2.485, "unit": "% by weight"}, {"measurement": "Sorption (% by weight)", "setting": "[4]; relative humidity 70.0%", "value": 0.864, "unit": "% by weight"}, {"measurement": "Desorption (% by weight)", "setting": "[4]; relative humidity 80.0%", "value": 3.016, "unit": "% by weight"}, {"measurement": "Sorption (% by weight)", "setting": "[4]; relative humidity 80.0%", "value": 1.085, "unit": "% by weight"}, {"measurement": "Desorption (% by weight)", "setting": "[4]; relative humidity 90.0%", "value": 5.151, "unit": "% by weight"}, {"measurement": "Sorption (% by weight)", "setting": "[4]; relative humidity 90.0%", "value": 2.335, "unit": "% by weight"}]}]}
